{"source": "paper PMC4131899", "about": "(Biochemistry, 2014)", "key": {"WT CYP2B4 [1]": {"biological_target": "T1, WT CYP2B4 (Oryctolagus cuniculus, UniProt P00178)", "T1 sequence (P00178 1-491)": "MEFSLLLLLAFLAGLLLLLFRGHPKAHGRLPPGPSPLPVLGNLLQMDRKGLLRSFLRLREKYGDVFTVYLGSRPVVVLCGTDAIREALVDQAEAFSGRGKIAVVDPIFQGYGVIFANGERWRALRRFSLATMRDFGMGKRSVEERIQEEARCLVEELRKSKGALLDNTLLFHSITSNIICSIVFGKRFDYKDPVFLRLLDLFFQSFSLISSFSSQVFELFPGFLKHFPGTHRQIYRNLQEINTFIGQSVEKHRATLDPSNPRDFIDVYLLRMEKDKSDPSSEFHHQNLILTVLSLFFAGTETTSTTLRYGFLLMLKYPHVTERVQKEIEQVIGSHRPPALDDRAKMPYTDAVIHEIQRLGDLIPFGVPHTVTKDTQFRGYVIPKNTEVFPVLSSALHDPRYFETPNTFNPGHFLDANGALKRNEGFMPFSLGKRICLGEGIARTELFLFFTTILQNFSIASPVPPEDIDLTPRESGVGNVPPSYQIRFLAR", "T1 sequence (P00388 1-678 partner)": "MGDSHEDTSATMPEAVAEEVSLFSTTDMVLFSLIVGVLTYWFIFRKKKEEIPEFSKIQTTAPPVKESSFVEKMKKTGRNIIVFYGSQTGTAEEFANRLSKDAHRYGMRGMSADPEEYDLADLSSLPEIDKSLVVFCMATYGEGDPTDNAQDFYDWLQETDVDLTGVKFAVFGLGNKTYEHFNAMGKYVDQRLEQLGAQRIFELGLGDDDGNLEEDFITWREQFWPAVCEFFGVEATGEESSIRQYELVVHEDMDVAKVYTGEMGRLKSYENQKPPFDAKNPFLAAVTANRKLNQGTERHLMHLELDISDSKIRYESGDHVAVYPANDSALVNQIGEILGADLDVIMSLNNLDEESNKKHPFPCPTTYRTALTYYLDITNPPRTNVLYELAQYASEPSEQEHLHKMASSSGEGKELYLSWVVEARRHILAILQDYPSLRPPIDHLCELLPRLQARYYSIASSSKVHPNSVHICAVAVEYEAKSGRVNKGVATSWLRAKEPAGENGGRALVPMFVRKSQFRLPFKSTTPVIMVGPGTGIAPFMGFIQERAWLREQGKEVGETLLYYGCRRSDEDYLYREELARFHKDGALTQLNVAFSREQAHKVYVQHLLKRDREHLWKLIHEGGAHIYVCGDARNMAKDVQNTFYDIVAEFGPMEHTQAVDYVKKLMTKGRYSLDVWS", "test": "N-demethylation of benzphetamine in purified reconstituted system", "format": "biochemical, rabbit", "details": "wild type; 1 mM benzphetamine, varied reductase"}, "CYP2B4 F429H [2]": {"biological_target": "T2, CYP2B4 F429H (Oryctolagus cuniculus, UniProt P00178, F429H)", "T2 sequence (P00178 1-491 F429H)": "T1 sequence (P00178 1-491) with F429H"}, "CYP2B4 F429H [3]": {"biological_target": "T3, CYP2B4 F429H (Oryctolagus cuniculus, UniProt P00178, F429H)", "T3 sequence (P00178 1-491 F429H)": "T1 sequence (P00178 1-491) with F429H", "T3 sequence (P00388 1-678 partner)": "T1 sequence (P00388 1-678 partner)", "remark": "listed apart in the source"}, "WT CYP2B4 [4]": {"biological_target": "T4, WT CYP2B4 (Oryctolagus cuniculus, UniProt P00178)", "T4 sequence (P00178 1-491)": "T1 sequence (P00178 1-491)", "details": "1 mM benzphetamine, 20 °C"}, "CYP2B4 F429H [5]": {"biological_target": "T2, CYP2B4 F429H", "details": "1 mM benzphetamine, 20 °C"}, "CYP2B4 F429H [6]": {"biological_target": "T2, CYP2B4 F429H", "test": "biochemical"}, "wild type (WT) CYP2B4": {"biological_target": "T5, wild type (WT) CYP2B4 (Oryctolagus cuniculus, UniProt P00178)", "T5 sequence (P00178 1-491)": "T1 sequence (P00178 1-491)", "test": "Substrate binding"}, "P450 (CYP2B4)": {"system": "P450 (CYP2B4)", "test": "Binding of redox mediator dyes to P450", "details": "data not shown"}}, "note": "Numbering of substitutions follows the chain as printed. Where two headings read alike, the source gives them in different places.", "data": [{"smiles": "C[C@@H](Cc1ccccc1)N(C)Cc1ccccc1", "note": "[benzphetamine]", "values": [{"measurement": "Vmax (N-demethylation of BP)", "setting": "WT CYP2B4 [1]", "value": "49 ± 5 nmol of product min^–1 (nmol of 450)^−1"}, {"measurement": "decreased affinity of mutant vs WT", "setting": "CYP2B4 F429H [2]; 30 °C, F429H vs WT", "value": 5, "unit": "fold"}, {"measurement": "enhancement of binding by cyt b5", "setting": "CYP2B4 F429H [2]; F429H, with vs without cyt b5", "value": "5–6 fold"}, {"measurement": "activity retained relative to wild type (N-demethylation of BP)", "setting": "CYP2B4 F429H [3]; F429H vs wild type", "value": 3.6, "unit": "%"}, {"measurement": "Vmax (N-demethylation of BP)", "setting": "CYP2B4 F429H [3]; F429H, 1 mM benzphetamine, varied reductase", "value": "1.60 ± 0.05 nmol of product min^–1 (nmol of 450)^−1"}, {"measurement": "increase in Em on binding of benzphetamine", "setting": "WT CYP2B4 [4]", "value": 88, "unit": "mV"}, {"measurement": "redox potential Em with BP", "setting": "WT CYP2B4 [4]; pH 7.4", "value": "–244 ± 7 mV"}, {"measurement": "increase in Em on binding of benzphetamine", "setting": "CYP2B4 F429H [5]", "value": 15, "unit": "mV"}, {"measurement": "redox potential Em with BP", "setting": "CYP2B4 F429H [5]; pH 7.4", "value": "–230 ± 8 mV"}, {"measurement": "Kd", "setting": "CYP2B4 F429H [6]; Ks, F429H, no reductase, no cyt b5, 15 °C", "value": "900 ± 200", "unit": "µM"}, {"measurement": "Kd", "setting": "CYP2B4 F429H [6]; Ks, F429H, no reductase, no cyt b5, 30 °C", "value": "390 ± 80", "unit": "µM"}, {"measurement": "Kd", "setting": "CYP2B4 F429H [6]; Ks, F429H, no reductase, with cyt b5, 15 °C", "value": "150 ± 60", "unit": "µM"}, {"measurement": "Kd", "setting": "CYP2B4 F429H [6]; Ks, F429H, with reductase, no cyt b5, 15 °C", "value": "830 ± 220", "unit": "µM"}, {"measurement": "Kd", "setting": "wild type (WT) CYP2B4; Ks, WT, no reductase, no cyt b5, 15 °C", "value": "250 ± 7", "unit": "µM"}, {"measurement": "Kd", "setting": "wild type (WT) CYP2B4; Ks, WT, no reductase, no cyt b5, 30 °C", "value": "80 ± 20", "unit": "µM"}, {"measurement": "Kd", "setting": "wild type (WT) CYP2B4; Ks, WT, no reductase, with cyt b5, 15 °C", "value": "58 ± 6", "unit": "µM"}, {"measurement": "Kd", "setting": "wild type (WT) CYP2B4; Ks, WT, with reductase, no cyt b5, 15 °C", "value": "220 ± 10", "unit": "µM"}]}, {"smiles": "c1ccc(C[n+]2ccc(-c3cc[n+](Cc4ccccc4)cc3)cc2)cc1", "note": "[benzyl viologen]", "values": [{"measurement": "spectral change on addition of dye to P450", "setting": "P450 (CYP2B4)", "value": "did not cause any spectral change"}]}, {"smiles": "Cc1cc(C(C)(C)C)c(O)c(C(C)(C)C)c1", "note": "[butylated hydroxytoluene, 2,6-di-tert-butyl-4-methylphenol]", "values": [{"measurement": "Kd", "setting": "CYP2B4 F429H [6]", "value": "1.82 ± 0.24", "unit": "µM"}, {"measurement": "Kd", "setting": "wild type (WT) CYP2B4", "value": "0.31 ± 0.14", "unit": "µM"}]}, {"smiles": "Nc1ccc2nc3ccc(N)cc3[n+](-c3ccccc3)c2c1.[Cl-]", "note": "[phenosafranin]", "values": [{"measurement": "spectral change on addition of dye to P450", "setting": "P450 (CYP2B4)", "value": "did not cause any spectral change"}]}]}
